Test results as given in patent US8093288B2, “Genipin derivatives and uses thereof” (Beth Israel Deaconess Medical Center, priority 2003, dated 2012).
“Also recorded” adds a separate entry of the source.

Experiments:
[1] = test system: islets from ob/ob mice lacking UCP2; assay: Glucose-stimulated insulin secretion in islets from ob/ob mice lacking UCP2; format: cell-based; settings: 5 μM genipin, FIG. 12C
Experimental: Pancreatic islets were isolated from WT (FIG. 12A) or UCP2 KO mice (FIG. 12B) and subjected to chronic incubations at low (5.5 mM) and high glucose (25 mM). In a separate experiment, islets were isolated from ob/ob mice (FIG. 12C). Islets were incubated for a total of 72 hours and washed, and then insulin-secretion studies were performed using three different concentrations of glucose (5.5, 12.5, and 25 mM) with or without 5 μM genipin. Results are means±SEM of four independent experiments (FIGS. 12A and 12B) or eight to twenty repeats of one representative experiment (FIG. 12C). WT islets that were chronically incubated at low glucose released increasing amounts of insulin in response to increasing concentrations of glucose (FIG. 12A, left panel). Following chronic hyperglycemia, islets increased basal insulin release, but were completely unresponsive to glucose stimulation (FIG. 12A, middle panel). […] To assess the role of genipin in hyperglycemia-induced loss of glucose responsiveness, genipin was acutely added into islets during the insulin-release phase of the study. […] Insulin secretion in islets from ob/ob mice and ob/ob mice lacking UCP2 with or without genipin was also studied. It has been reported that in ob/ob islets, UCP2 expression levels are increased compared to WT islets. […]

[2] = test system: WT mice on chow diet, WT mice on high fat diet, ob/ob mice; assay: Serum insulin in vivo after genipin injection in WT (chow, HFD) and ob/ob mice; settings: WT chow (6 hours fasting, 10 mg/kg), WT HFD (20 hours fasting, 10 mg/kg), ob/ob (20 hours fasting, 20 mg/kg); injected; FIGS. 13A-C
Experimental: UCP2-deficient mice have increased serum insulin levels. Genipin inhibits UCP2 activity, and thus should stimulate insulin secretion acutely in vivo. In the present study, the effect of genipin on insulin secretion in vivo was assessed. WT and UCP2 KO mice were fed a chow diet (FIG. 13A), or placed on a high fat diet (HFD) (FIG. 13B) (#D12331, obtained from Research Diets Inc., New Brunswick, N.J.). The fat source was coconut oil and comprised 58% of the total calories. The mice remained on the HFD for 24 weeks. Both WT and KO mice were obese (50-60 g). ob/ob mice (FIG. 13C) were obtained from The Jackson Laboratory. After 6 hours (FIG. 13A) or 20 hours (FIGS. 13B and 13C) of fasting, genipin (10 mg/kg (FIGS. 13A and 13B), or 20 mg/kg (FIG. 13C)) was injected into the mice. Serum insulin levels were measured before and after administration of genipin as indicated.

[3] = test system: high fat diet-fed UCP2 knockout mice; assay: Blood glucose and insulin after genipin injection in high fat diet-fed UCP2 knockout mice; format: in vivo; settings: high fat diet 24 weeks, 20 hours fasting, 300 μg genipin injected, thirty minutes after injection
Experimental: Wildtype and UCP2 knockout mice were placed on a high fat diet obtained from Research Diets Inc., New Brunswick, N.J. (cat. no. D12331, HFD). The fat source was coconut oil and comprised 58% of the total calories. The mice remained on the high fat diet for 24 weeks. After the 24 weeks, both the wildtype and the UCP2 knockout mice were obese (about 50-60 g). After 20 hours of fasting, the blood glucose and insulin levels of the mice were measured, then the mice were injected with 300 μg of genipin. Thirty minutes after injection the blood glucose and insulin levels of the mice were measured again. Blood glucose levels were assessed using a glucometer (One touch, Lifescan, Milpitas, Calif.). Serum insulin concentrations were assessed using mouse insulin as a standard (Rat Insulin ELISA Kit. cat. #INSKR020 Crystal Chem. Inc., Chicago, Ill.). […] A comparison of the effect of genipin on the blood glucose levels and insulin levels in wildtype and UCP2 knockout mice can be seen in FIGS. 7 and 10, respectively.

[4] = test system: pancreatic islets from UCP2 knockout mice; assay: Insulin secretion in isolated pancreatic islets from UCP2 knockout mice; format: cell-based; settings: 5.5 mM glucose, 50 nM, 0.5 μM and 5 μM genipin, 37° C. for 60 min, FIG. 4 / FIG. 11B
Experimental: (§1) As used or herein, pancreatic islets from wildtype and UCP2 knockout mice were isolated according to a method used for rats (Cawthorn and Chan, Mol. Cell. Endocrinol. 1991, 75:197-204, the entire teachings of which are incorporated herein by reference), except that the total exposure to type XI collagenase (Worthington Biochemical Co., NJ) was 30 min. and the Ficoll gradient was altered to layers of 25%, 23%, 21%, and 11%. Islets were harvested from the 11%-21% interface.
(§2) Islets were cultured in RPMI medium containing 11.0 mM glucose and supplemented with 1% penicillin-streptomycin. 7.5% fetal bovine serum (all from Gibco/BRL, Burlington, ON), and 10 mM Hepes (Sigma). After culturing for 20-24 hr, the islets were transferred to microcentrifuge tubes, pelleted (800 g for 5 min), and the medium aspirated and replaced with 1.0 mL DME medium containing 1% gelatin and 5.5 mM glucose with no genipin (control), 50 nM genipin, 0.5 μM genipin, and 5 μM genipin. For insulin secretion studies, the three islets were incubated per tube. After incubation at 37° C. for 60 min., the islets were centrifuged. The supernatant was collected and stored at −80° C., and then later assayed for insulin using Rat Insulin ELISA Kit (Cat. No. INSKR020, Crystal Chem., Inc., Chicago, Ill.).
(§3) FIGS. 11B and 11C show their effects on insulin secretion. Pancreatic islets were isolated from WT or UCP2 knockout (KO) mice. […]

[5] = test system: pancreatic islets from wildtype mice; assay: Insulin secretion in isolated pancreatic islets from wildtype mice; format: cell-based; settings: 5.5 mM glucose; 50 nM, 0.5 μM and 5 μM genipin; 37° C. for 60 min; WT islets; FIG. 4 / FIG. 11B
Experimental: as §1, §2, §3

Structure (SMILES): COC(=O)C1=CO[C@@H](O)[C@@H]2C(CO)=CC[C@H]12 [genipin]
- glucose sensing (glucose-stimulated insulin secretion) [1]: did not improve glucose sensing above the level seen in islets lacking UCP2 alone
- serum insulin levels [2]: can increase insulin levels in all three animal models
- blood glucose levels ([3]; FIG. 6): little effect
- insulin levels ([3]; FIG. 9): little effect
- insulin secretion [4]: does not increase insulin secretion; also recorded: no effect on insulin secretion
- insulin secretion [5]: increases insulin secretion in a dose-dependent manner
